Measured values as given in article PMC10141580, “Cyclic Dichalcogenides Extend the Reach of Bioreductive Prodrugs to Harness Thiol/Disulfide Oxidoreductases: Applications to seco-Duocarmycins Targeting the Thioredoxin System” (ACS Central Science, 2023).
“And” between values parts separate entries of the source, which are not always exact repeats. Equal entries are not always repeated. Where two headings read alike, the source gives them in different places.

System: panel of 140 standard cancer cell lines
Test: ProliFiler-140 cancer cell line screen (CellTiterGlo, 72 h)
Format: cell-based
Procedure: Incubations were performed for 72 h before automated viability readout with CellTiterGlo (Figure 8).
End of Figure S11 (part 5 of 5): ProliFiler-140 cancer cell line screening for cytotoxicity of the prodrugs.
8-data-point dose response curves from CellTiter-Glo® viability readout.
ProliFiler-140 cell line panel part V

Structure (SMILES): COc1cc2cc(C(=O)N3C[C@@H](CCl)c4c3cc(OC(=O)N3CCN(C(=O)CCC(=O)N5CCN(C)CC5)[C@H]5CSSC[C@H]53)c3ccccc43)[nH]c2c(OC)c1OC [P-SS66C-CBI-TMI]
- Reductive Activation Index (KG-1 a (Blood)): 5.16
- Reductive Activation Index (Kato III (Stomach)): 7.4
- Reductive Activation Index (LN229 (Brain)): 5.44
- IC50 (LOU-NH91, read-out: IC50 [M] (ProliFiler-140), LOU-NH91 (Lung)): 3.5e-08 M
- Reductive Activation Index (LnCap (Prostate)): 33
- Reductive Activation Index (M07e (Blood)): 4.26
- IC50 (M-07e, read-out: IC50 [M] (ProliFiler-140), M07e (Blood)): 3.25e-08 M
- Reductive Activation Index (MCAS (Ovary)): 5.9 and 5.91
- Reductive Activation Index (MDA MB 231 (Breast)): 5.44
- Reductive Activation Index (MDA MB 435 (Skin)): 8.6
- IC50 (MDA MB 435 (Skin); read-out: IC50 [M] (ProliFiler-140)): 1.26e-07 M
- Reductive Activation Index (MKN-1 (Stomach)): 11.1
- Reductive Activation Index (MKN-45 (Stomach)): 5.93
- Reductive Activation Index (Mia PaCA 2 (Pancreas)): 4.38
- Reductive Activation Index (NALM-6 (Blood)): 22.62 and 23
- Reductive Activation Index (NCI-H82 (Lung)): 8.5
- Reductive Activation Index (NCI-H441 (Lung)): 5.81
- Reductive Activation Index (NCI-H838 (Lung)): 10
- Reductive Activation Index (NCI-H1563 (Lung)): 15
- Reductive Activation Index (NCI-H1573 (Lung)): 12
- Reductive Activation Index (NCI-H1703 (Lung)): 16
- Reductive Activation Index (NCI-H1838 (Lung)): 11
- IC50 (NCI-H2110, read-out: IC50 [M] (ProliFiler-140), NCI-H2110 (Lung)): 1.8e-08 M
- Reductive Activation Index (NCI-N87 (Stomach)): 15
- Reductive Activation Index (OCI-AML5 (Blood)): 5.7 and 5.67
- Reductive Activation Index (OCI-LY19 (Blood)): 5.41
- Reductive Activation Index (OPM-2 (Blood)): 25.37
- Reductive Activation Index (OV56 (Ovary)): 2.79
- IC50 (OV56, read-out: IC50 [M] (ProliFiler-140), OV56 (Ovary)): 7.25e-08 M
- Reductive Activation Index (OVCAR-3 (Ovary)): 13
- Reductive Activation Index (OVK18 (Ovary)): 4.38
- IC50 (OVK18, read-out: IC50 [M] (ProliFiler-140), OVK18 (Ovary)): 4.57e-08 M
- Reductive Activation Index (PANC-1 (Pancreas)): 6.9
- Reductive Activation Index (RERF-LC-Ad2 (Lung)): 5.5 and 5.54
- IC50 (RERF-LC-Ad2, read-out: IC50 [M] (ProliFiler-140), RERF-LC-Ad2 (Lung)): 1.4e-07 M
- Reductive Activation Index (RL95-2 (Endometrium)): 5.93
- Reductive Activation Index (SCLC-21H (Lung)): 6.16
- Reductive Activation Index (SJSA-1 (Bone)): 3.87
- Reductive Activation Index (SK-MEL-3 (Skin)): 6.6
- Reductive Activation Index (SK-N-FI (Brain)): 4.91
- Reductive Activation Index (SK-N-SH (Brain)): 6.5
- Reductive Activation Index (SNU840 (Ovary)): 1.11
- Reductive Activation Index (SNU-216 (Stomach)): 19.98 and 20
- IC50 (SNU-216, read-out: IC50 [M] (ProliFiler-140), SNU-216 (Stomach)): 9.22e-08 M
- IC50 (SNU-840, read-out: IC50 [M] (ProliFiler-140), SNU840 (Ovary)): 6.29e-08 M
- Reductive Activation Index (SU-DHL-5 (Blood)): 19 and 19.50
- Reductive Activation Index (SW480 (Colon)): 6.01
- Reductive Activation Index (SW620 (Colon)): 4.55
- Reductive Activation Index (SW948 (Colon)): 4.75
- Reductive Activation Index (Saos-2 EC (Bone)): 3.52
- Reductive Activation Index (SiHa (Ovary)): 5.41
- Reductive Activation Index (T84 (Colon)): 5.69 and 5.7
- Reductive Activation Index (T-47D (Breast)): 11
- Reductive Activation Index (U2OS (Bone)): 4.10
- Reductive Activation Index (U87MG (Brain)): 8.0
- Reductive Activation Index (U118MG (Brain)): 2.11
- Reductive Activation Index (U251MG (Brain)): 17
- Reductive Activation Index (U-937 (Blood)): 6.40
- Reductive Activation Index (ZR-75-1 (Breast)): 4.62 and 4.6
- IC50 (read-out: IC50 [M] (ProliFiler-140), BEN (Lung)): 5.3e-08 M
- IC50 (read-out: IC50 [M] (ProliFiler-140), H4 (Brain)): 1.39e-08 M
- IC50 (read-out: IC50 [M] (ProliFiler-140), Hep3B2.1-7 (Liver)): 1.7e-07 M
- IC50 (read-out: IC50 [M] (ProliFiler-140), J82 (Bladder)): 9.55e-08 M
- IC50 (read-out: IC50 [M] (ProliFiler-140), KG-1 (Blood)): 1.92e-07 M
- IC50 (read-out: IC50 [M] (ProliFiler-140), LP-1 (Blood)): 1e-07 M
- IC50 (read-out: IC50 [M] (ProliFiler-140), MCAS (Ovary)): 1.4e-07 M
- IC50 (read-out: IC50 [M] (ProliFiler-140), PC3 (Prostate)): 4.01e-08 M
- IC50 (read-out: IC50 [M] (ProliFiler-140), PC-9 (Lung)): 1.4e-08 M
- IC50 (read-out: IC50 [M] (ProliFiler-140), RERF-LC-MS (Lung)): 3.07e-08 M
- IC50 (read-out: IC50 [M] (ProliFiler-140), RKO (Colon)): 2.13e-08 M
- IC50 (read-out: IC50 [M] (ProliFiler-140), SCH (Stomach)): 1.5e-08 M
- IC50 (read-out: IC50 [M] (ProliFiler-140), T84 (Colon)): 1.6e-07 M
- IC50 (read-out: IC50 [M] (ProliFiler-140); 786-O (Kidney)): 2.9e-08 M
- IC50 (read-out: IC50 [M] (ProliFiler-140); A375 (Skin)): 5.5e-08 M
- IC50 (read-out: IC50 [M] (ProliFiler-140); A427 (Lung)): 4.42e-08 M
- IC50 (read-out: IC50 [M] (ProliFiler-140); A431 (Skin)): 2e-08 M
- IC50 (read-out: IC50 [M] (ProliFiler-140); A498 (Kidney)): 9.4e-08 M
- IC50 (read-out: IC50 [M] (ProliFiler-140); A549 (Lung)): 3.03e-08 M
- IC50 (read-out: IC50 [M] (ProliFiler-140); A2058 (Skin)): 1.09e-08 M
- IC50 (read-out: IC50 [M] (ProliFiler-140); A2780 (Ovary)): 8.13e-09 M
- IC50 (read-out: IC50 [M] (ProliFiler-140); AsPC-1 (Pancreas)): 2.62e-07 M
- IC50 (read-out: IC50 [M] (ProliFiler-140); BEN (Lung)): 5.35e-08 M
- IC50 (read-out: IC50 [M] (ProliFiler-140); BT-20 (Breast)): 1.22e-07 M
